{"source": "patent US11883411B2", "about": "(priority 2022, dated 2024)", "key": {"p72 protein of ASFV": {"test_system": "p72 protein of ASFV", "type": "cell-based, African swine fever virus (ASFV)"}, "D1133L RNA of ASFV": {"test_system": "D1133L RNA of ASFV", "type": "cell-based"}, "D1133L protein of ASFV": {"test_system": "D1133L protein of ASFV", "type": "cell-based"}, "ASFV fluorescent virus [1]": {"test_system": "ASFV fluorescent virus", "type": "cell-based, African swine fever virus (ASFV)"}, "p30 protein of ASFV": {"test_system": "p30 protein of ASFV", "type": "cell-based, African swine fever virus (ASFV)"}, "ASFV fluorescent virus [2]": {"test_system": "ASFV fluorescent virus", "experiment": "microbe, parasite or virus in culture", "type": "cell-based, African swine fever virus (ASFV)"}, "PAM cells": {"test_system": "PAM cells", "details": "pig"}, "ASFV fluorescent virus [3]": {"test_system": "ASFV fluorescent virus", "type": "cell-based, African swine fever virus (ASFV)", "remark": "listed apart in the source"}}, "note": "Entries after “also recorded” stand apart in the source; their conditions may differ."}
{"smiles": "C[C@@H](O[C@H]1OCCN(Cc2n[nH]c(=O)[nH]2)[C@H]1c1ccc(F)cc1)c1cc(C(F)(F)F)cc(C(F)(F)F)c1", "note": "[aprepitant, 5-[2(R)-[1(R)-[3,5-bis(trifluoromethyl)phenyl]ethoxy]-3(S)-(4-fluorophenyl)morpholino-4-ylmethyl]-3,4-dihydro-2H-1,2,4-triazol-3-one]", "values": [{"measurement": "expression level of p72 protein", "setting": "p72 protein of ASFV", "result": "significantly decreased"}, {"measurement": "inhibition rate of D1133L RNA expression level", "setting": "D1133L RNA of ASFV", "result": "higher than 50%"}, {"measurement": "expression level of D1133L protein", "setting": "D1133L protein of ASFV", "result": "significantly decreased"}, {"measurement": "fluorescence of ASFV fluorescent virus in infected cells", "setting": "ASFV fluorescent virus [1]", "result": "gradually becomes darker; also recorded: completely disappears"}, {"measurement": "expression level of p30 protein", "setting": "p30 protein of ASFV", "result": "significantly decreased"}, {"measurement": "ASFV genome copy number", "setting": "ASFV fluorescent virus [2]", "result": "reduced"}, {"measurement": "inhibition at 22 µM", "setting": "ASFV fluorescent virus [2]; African swine fever virus, 48 h, read-out: inhibition of ASFV genome copy number", "result": "> 50", "unit": "%"}, {"measurement": "cell viability", "setting": "PAM cells", "result": "more than 50%"}, {"measurement": "TCID50 of ASFV fluorescent virus", "setting": "ASFV fluorescent virus [3]", "result": "reduce the TCID50; also recorded: minimum"}]}
